Literature values in patent US11191745B2, “Silica nanoparticle with an insoluble drug” (CITY OF HOPE, priority 2017, dated 2021).

Test system: plasma proteins
Details: systemically administered

drug bound to plasma proteins: more than 90%
SMILES: CC(=O)O[C@H]1C(=O)[C@@]2(C)[C@H]([C@H](OC(=O)c3ccccc3)[C@]3(O)C[C@H](OC(=O)[C@H](O)[C@@H](NC(=O)c4ccccc4)c4ccccc4)C(C)=C1C3(C)C)[C@]1(OC(C)=O)CO[C@@H]1C[C@@H]2O [PTX, Paclitaxel]
